Where two headings read alike, the source gives them in different places.

[1] abbreviates: 0.1N HCL, 1.0% DMSO, 24-hour incubation at ambient temperature, maximum theoretical compound concentration 100 μM.
Where [2] appears, read: 1×PBS buffer (pH 7.4), 1.0% DMSO, 24-hour incubation at ambient temperature, maximum theoretical compound concentration 100 μM.

As to `CC(C)[C@H](N)C(=O)N(c1nn(CC(F)(F)F)c2c(-c3ccc(C#CC(C)(C)S(C)(=O)=O)nc3[C@H](Cc3cc(F)cc(F)c3)NC(=O)Cn3nc(C(F)(F)F)c4c3C(F)(F)[C@@H]3C[C@H]43)ccc(Cl)c12)S(C)(=O)=O` [Compound 20, (S)-2-amino-N-(4-chloro-7-(2-((S)-1-(2-((3bS,4aR)-5,5-difluoro-3-(trifluoromethyl)-3b,4,4a,5-tetrahydro-1H-cyclopropa[3,4]cyclopenta[1,2-c]pyrazol-1-yl)acetamido)-2-(3,5-difluorophenyl)ethyl)-6-(3-methyl-3-(methylsulfonyl)but-1-yn-1-yl)pyridin-3-yl)-1-(2,2,2-trifluoroethyl)-1H-indazol-3-yl)-3-methyl-N-(methylsulfonyl)butanamide], the “pH 2 solubility” value under setting [1] was 69 μM. Moreover, the “pH 7 solubility” value under setting [2] is 2 μM.

Turning to `CN[C@H](C(=O)N(c1nn(CC(F)(F)F)c2c(-c3ccc(C#CC(C)(C)S(C)(=O)=O)nc3[C@H](Cc3cc(F)cc(F)c3)NC(=O)Cn3nc(C(F)(F)F)c4c3C(F)(F)[C@@H]3C[C@H]43)ccc(Cl)c12)S(C)(=O)=O)C(C)C` [Compound 21, N-(4-chloro-7-(2-((S)-1-(2-((3bS,4aR)-5,5-difluoro-3-(trifluoromethyl)-3b,4,4a,5-tetrahydro-1H-cyclopropa[3,4]cyclopenta[1,2-c]pyrazol-1-yl)acetamido)-2-(3,5-difluorophenyl)ethyl)-6-(3-methyl-3-(methylsulfonyl)but-1-yn-1-yl)pyridin-3-yl)-1-(2,2,2-trifluoroethyl)-1H-indazol-3-yl)-3-methyl-2-(methylamino)-N-(methylsulfonyl)butanamide], the “pH 2 solubility” value under setting [1] is 72 μM. The “pH 7 solubility” value under setting [2] is recorded as 2 μM.

On to `CC(C)(C#Cc1ccc(-c2ccc(Cl)c3c(N(C(=O)CN(CC(=O)O)CC(=O)O)S(C)(=O)=O)nn(CC(F)(F)F)c23)c([C@H](Cc2cc(F)cc(F)c2)NC(=O)Cn2nc(C(F)(F)F)c3c2C(F)(F)[C@@H]2C[C@H]32)n1)S(C)(=O)=O` [Compound 23], for which the “pH 2 solubility” value under setting [1] is on record as 14 μM. The “pH 7 solubility” value under setting [2] was 22 μM.

Take `CC(C)(C#Cc1ccc(-c2ccc(Cl)c3c(N(C(=O)[C@H](CCC(=O)O)NC(=O)C(=O)O)S(C)(=O)=O)nn(CC(F)(F)F)c23)c([C@H](Cc2cc(F)cc(F)c2)NC(=O)Cn2nc(C(F)(F)F)c3c2C(F)(F)[C@@H]2C[C@H]32)n1)S(C)(=O)=O` [Compound 24, (S)-4-(carboxyformamido)-5-(N-(4-chloro-7-(2-((S)-1-(2-((3bS,4aR)-5,5-difluoro-3-(trifluoromethyl)-3b,4,4a,5-tetrahydro-111-cyclopropa[3,4]cyclopenta[1,2-c]pyrazol-1-yl)acetamido)-2-(3,5-difluorophenyl)ethyl)-6-(3-methyl-3-(methylsulfonyl)but-1-yn-1-yl)pyridin-3-yl)-1-(2,2,2-trifluoroethyl)-1H-indazol-3-yl)methylsulfonamido)-5-oxopentanoic acid]: the “pH 2 solubility” value under setting [1] came to 1 μM. Moreover, the “pH 7 solubility” value under setting [2] came out at 14 μM.

With `CC(C)(C#Cc1ccc(-c2ccc(Cl)c3c(N(C(=O)CCCC(=O)O)S(C)(=O)=O)nn(CC(F)(F)F)c23)c([C@H](Cc2cc(F)cc(F)c2)NC(=O)Cn2nc(C(F)(F)F)c3c2C(F)(F)[C@@H]2C[C@H]32)n1)S(C)(=O)=O` [Compound 25, 5-(N-(4-chloro-7-(2-((S)-1-(2-((3bS,4aR)-5,5-difluoro-3-(trifluoromethyl)-3b,4,4a,5-tetrahydro-1H-cyclopropa[3,4]cyclopenta[1,2-c]pyrazol-1-yl)acetamido)-2-(3,5-difluorophenyl)ethyl)-6-(3-methyl-3-(methylsulfonyl)but-1-yn-1-yl)pyridin-3-yl)-1-(2,2,2-trifluoroethyl)-1H-indazol-3-yl)methylsulfonamido)-5-oxopentanoic acid], under setting [1], the “pH 2 solubility” value was 1/1 μM. For the same compound, the “pH 7 solubility” value under setting [2] was 1/1 μM.

Turning to `C[C@H](CC(=O)O)C(=O)N(c1nn(CC(F)(F)F)c2c(-c3ccc(C#CC(C)(C)S(C)(=O)=O)nc3[C@H](Cc3cc(F)cc(F)c3)NC(=O)Cn3nc(C(F)(F)F)c4c3C(F)(F)[C@@H]3C[C@H]43)ccc(Cl)c12)S(C)(=O)=O` [Compound 26, (R)-4-(N-(4-chloro-7-(2-((S)-1-(2-((3bS,4aR)-5,5-difluoro-3-(trifluoromethyl)-3b,4,4a,5-tetrahydro-1H-cyclopropa[3,4]cyclopenta[1,2-c]pyrazol-1-yl)acetamido)-2-(3,5-difluorophenyl)ethyl)-6-(3-methyl-3-(methylsulfonyl)but-1-yn-1-yl)pyridin-3-yl)-1-(2,2,2-trifluoroethyl)-1H-indazol-3-yl)methylsulfonamido)-3-methyl-4-oxobutanoic acid], under setting [1], the “pH 2 solubility” value is listed as 1/1 μM. Also, under setting [2], the “pH 7 solubility” value is listed as 1/1 μM.

In the case of `Cc1cc(CC(=O)NCC(=O)O)c(C(C)(C)CC(=O)N(c2nn(CC(F)(F)F)c3c(-c4ccc(C#CC(C)(C)S(C)(=O)=O)nc4[C@H](Cc4cc(F)cc(F)c4)NC(=O)Cn4nc(C(F)(F)F)c5c4C(F)(F)[C@@H]4C[C@H]54)ccc(Cl)c23)S(C)(=O)=O)c(OP(=O)(O)O)c1` [Compound 63, (2-(2-(4-(N-(4-chloro-7-(2-((S)-1-(2-((3bS,4aR)-5,5-difluoro-3-(trifluoromethyl)-3b,4,4a,5-tetrahydro-1H-cyclopropa[3,4]cyclopenta[1,2-c]pyrazol-1-yl)acetamido)-2-(3,5-difluorophenyl)ethyl)-6-(3-methyl-3-(methylsulfonyl)but-1-yn-1-yl)pyridin-3-yl)-1-(2,2,2-trifluoroethyl)-1H-indazol-3-yl)methylsulfonamido)-2-methyl-4-oxobutan-2-yl)-5-methyl-3-(phosphonooxy)phenyl)acetyl)glycine], for the setting “pH 2”, the “pH 2 solubility” value is given as 1/85 μM. The “pH 7 solubility” value (pH 7.4) was 1/85 μM.

In the case of `CC(C)(CC(=O)N(c1nn(CC(F)(F)F)c2c(-c3ccc(C#CC(C)(C)S(C)(=O)=O)nc3[C@H](Cc3cc(F)cc(F)c3)NC(=O)Cn3nc(C(F)(F)F)c4c3C(F)(F)[C@@H]3C[C@H]43)ccc(Cl)c12)S(C)(=O)=O)c1c(CC(=O)O)cc(C(N)=O)cc1OP(=O)(O)O` [Compound 68], the “pH 2 solubility” value (pH 2) was <1/65 μM. Also, for the setting “pH 7.4”, the “pH 7 solubility” value is given as <1/65 μM.

As to `CC(C)(CC(=O)N(c1nn(CC(F)(F)F)c2c(-c3ccc(C#CC(C)(C)S(C)(=O)=O)nc3[C@H](Cc3cc(F)cc(F)c3)NC(=O)Cn3nc(C(F)(F)F)c4c3C(F)(F)[C@@H]3C[C@H]43)ccc(Cl)c12)S(C)(=O)=O)c1c(CC(=O)N[C@@H](CC(=O)O)C(=O)O)cc(C(N)=O)cc1OP(=O)(O)O` [Compound 69, (2-(5-carbamoyl-2-(4-(N-(4-chloro-7-(2-((S)-1-(2-((3bS,4aR)-5,5-difluoro-3-(trifluoromethyl)-3b,4,4a,5-tetrahydro-1H-cyclopropa[3,4]cyclopenta[1,2-c]pyrazol-1-yl)acetamido)-2-(3,5-difluorophenyl)ethyl)-6-(3-methyl-3-(methylsulfonyl)but-1-yn-1-yl)pyridin-3-yl)-1-(2,2,2-trifluoroethyl)-1H-indazol-3-yl)methylsulfonamido)-2-methyl-4-oxobutan-2-yl)-3-(phosphonooxy)phenyl)acetyl)-L-aspartic acid], the “pH 2 solubility” value (pH 2) is 3/75 μM. Moreover, the “pH 7 solubility” value (pH 7.4) is given as 3/75 μM.

As for `CC(C)(CC(=O)N(c1nn(CC(F)(F)F)c2c(-c3ccc(C#CC(C)(C)S(C)(=O)=O)nc3[C@H](Cc3cc(F)cc(F)c3)NC(=O)Cn3nc(C(F)(F)F)c4c3C(F)(F)[C@@H]3C[C@H]43)ccc(Cl)c12)S(C)(=O)=O)c1c(CC(=O)O)cccc1OP(=O)(O)O` [Compound 70, 2-(2-(4-(N-(4-chloro-7-(2-((S)-1-(2-((3bS,4aR)-5,5-difluoro (trifluoromethyl)-3b,4,4a,5-tetrahydro-1H-cyclopropa[3,4]cyclopenta[1,2-c]pyrazolyl)acetamido)-2-(3,5-difluorophenyl)ethyl)-6-(3-methyl-3-(methylsulfonyl)but-1-ynyl)pyridin-3-yl)-1-(2,2,2-trifluoroethyl)-1H-indazol-3-yl)methylsulfonamido)-2-methyloxobutan-2-yl)-3-(phosphonooxy)phenyl)acetic acid], where the note is “pH 2”, the “pH 2 solubility” value was 7/94 μM. Moreover, the “pH 7 solubility” value (pH 7.4) was 7/94 μM.

`CC(C)(CC(=O)N(c1nn(CC(F)(F)F)c2c(-c3ccc(C#CC(C)(C)S(C)(=O)=O)nc3[C@H](Cc3cc(F)cc(F)c3)NC(=O)Cn3nc(C(F)(F)F)c4c3C(F)(F)[C@@H]3C[C@H]43)ccc(Cl)c12)S(C)(=O)=O)c1c(CC(=O)N[C@@H](CC(=O)O)C(=O)O)cccc1OP(=O)(O)O` [Compound 71, (2-(2-(4-(N-(4-chloro-7-(2-((S)-1-(2-((3bS,4aR)-5,5-difluoro-3-(trifluoromethyl)-3b,4,4a,5-tetrahydro-1H-cyclopropa[3,4]cyclopenta[1,2-c]pyrazol-1-yl)acetamido)-2-(3,5-difluorophenyl)ethyl)-6-(3-methyl-3-(methylsulfonyl)but-1-yn-1-yl)pyridin-3-yl)-1-(2,2,2-trifluoroethyl)-1H-indazol-3-yl)methylsulfonamido)-2-methyl-4-oxobutan-2-yl)-3-(phosphonooxy)phenyl)acetyl)-L-aspartic acid]: the “pH 2 solubility” value (pH 2) is 2/88 μM. Moreover, under “pH 7.4”, the “pH 7 solubility” value is listed as 2/88 μM.

The record behind these values is patent US11787825B2 (priority 2021, dated 2023).
